Data on 15 molecules can be found in PubChem BioAssay (NCI).

Structures are written as SMILES.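 Protocol summary: plate cells (96-well), add compound at 5 concentrations, incubate 48 h, interpolate endpoints linearly. GI50: concentration for 50% inhibition of growth. TGI: total growth inhibition.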

Among the test systems are ACHN renal; HCT-15 colon; HT29 colon; IGROV1 ovarian; MOLT-4 leukemia; SNB-19 CNS; HCT-116 colon; NCI-H226 lung; MDA-MB-435.
Assay in all cases: NCI-60 cell line screen, 48 h

For `CC1(C)CC(=O)c2c(oc3cc(O)c(O)cc23)C1`, the TGI in the assay on ACHN renal, in the assay on HCT-15 colon, in the assay with HT29 colon, in the assay with IGROV1 ovarian, in the assay with MOLT-4 leukemia and in the assay on SNB-19 CNS was greater than 100 µM in each case.
On to `COC(=O)c1cc2c3c(ccc2[nH]1)N(C(=O)c1cc2c4c(ccc2[nH]1)N(C(=O)c1cc2c5c(ccc2[nH]1)N(C(N)=O)CC5)CC4)CC3`, for which the TGI in the assay on ACHN renal was greater than 27.8 µM; with HCT-116 colon it was greater than 100 µM; in the assay with HCT-15 colon, greater than 100 µM; with HT29 colon it was greater than 100 µM; in the assay on IGROV1 ovarian, 20.5 µM; with MOLT-4 leukemia, greater than 100 µM. Further, the TGI with NCI-H226 lung stood at 5.76 µM; in the assay on SNB-19 CNS it was 12.6 µM.
Regarding `COc1nc2c(c(O)c(C)c(=O)n2OC2OC(COC(C)=O)C(OC(C)=O)C(OC(C)=O)C2OC(C)=O)c(=O)n1C` (stereo not drawn), the TGI with ACHN renal, in the assay on HCT-116 colon, in the assay on HCT-15 colon, in the assay with HT29 colon, with IGROV1 ovarian and in the assay on MOLT-4 leukemia was greater than 100 µM each time. Moreover, the TGI with NCI-H226 lung and in the assay on SNB-19 CNS was greater than 100 µM each time.
With `NC(=O)c1c[se]c(C2OC(COP(=O)(O)CP(=O)(O)OCC3OC(n4cnc5c(N)ncnc54)C(O)C3O)C(O)C2O)n1` (stereo not drawn), the TGI in the assay on ACHN renal, with HCT-116 colon, with HT29 colon, in the assay with IGROV1 ovarian, with MOLT-4 leukemia and in the assay on NCI-H226 lung was greater than 100 µM throughout. The TGI in the assay with SNB-19 CNS is greater than 100 µM.
As to `CCC(=O)c1cc([N+](=O)[O-])c(Br)s1`, the GI50 was 1.71 µM with ACHN renal; 1.68 µM in the assay with HCT-116 colon; 2.47 µM with HCT-15 colon; 1.52 µM in the assay with HT29 colon; 4.77 µM with MDA-MB-435; 2.7 µM in the assay with MOLT-4 leukemia. The GI50 in the assay on NCI-H226 lung is 18.7 µM; in the assay with SNB-19 CNS, 17.4 µM. For the same molecule, the TGI turned out to be 3.26 µM in the assay with ACHN renal; 3.14 µM in the assay with HCT-116 colon; 8.21 µM in the assay with HCT-15 colon; 3.29 µM with HT29 colon; 18.7 µM in the assay on MDA-MB-435; 13.2 µM in the assay on MOLT-4 leukemia. For the same molecule, the figures for the TGI with NCI-H226 lung and in the assay on SNB-19 CNS were 35.6 µM and 35.3 µM, respectively.
`CCCCCCCCCC(=O)Oc1cccc2onc(C)c12`: the TGI in the assay on ACHN renal, in the assay on HCT-116 colon, in the assay with HCT-15 colon, in the assay on HT29 colon, in the assay on IGROV1 ovarian and with MOLT-4 leukemia was greater than 100 µM each time. The TGI in the assay on NCI-H226 lung and in the assay with SNB-19 CNS was greater than 100 µM throughout.
In the case of `CC[P+]1(CC)CCCC1`, the TGI in the assay on ACHN renal, with HCT-15 colon, in the assay with HT29 colon, in the assay on IGROV1 ovarian, with MOLT-4 leukemia and in the assay with SNB-19 CNS was greater than 100 µM throughout.
As to `O=[N+]([O-])C1C2C=CC(C2)[C@H]1c1ccc(Cl)cc1Cl` (stereo partly drawn), the TGI with ACHN renal is greater than 100 µM; with HCT-116 colon, greater than 100 µM; with HCT-15 colon, greater than 100 µM; with HT29 colon it was 57.4 µM; with MOLT-4 leukemia, greater than 100 µM; in the assay on NCI-H226 lung it was greater than 100 µM. The TGI with SNB-19 CNS is greater than 100 µM.
Consider `c1ccc(NC[Si]23OCCN(CCO2)CCO3)cc1`, for which the TGI with ACHN renal, in the assay on HCT-116 colon, with HT29 colon, in the assay with IGROV1 ovarian, in the assay on MOLT-4 leukemia and in the assay on NCI-H226 lung was greater than 100 µM in each case. In the assay on SNB-19 CNS, this molecule returned a TGI greater than 100 µM.
In the case of `CC(=O)[CH-]C(=O)c1ccccc1.CC(=O)[CH-]C(=O)c1ccccc1.[CH2-]CCC.[CH2-]CCC.[Sn+4]`, the GI50 with ACHN renal was 1.49 µM; in the assay on HCT-116 colon, 1.38 µM; in the assay with HCT-15 colon, 1.29 µM; with HT29 colon it was 1.73 µM; in the assay on IGROV1 ovarian it was 1.57 µM; in the assay with MOLT-4 leukemia, 0.421 µM. In addition, the GI50 in the assay on NCI-H226 lung is 0.526 µM; with SNB-19 CNS, 1.3 µM. In addition, the TGI in the assay with ACHN renal came out at 2.86 µM; in the assay on HCT-116 colon, 2.78 µM; in the assay with HCT-15 colon, 2.87 µM; in the assay on HT29 colon it was 3.39 µM; in the assay on IGROV1 ovarian it was 3.28 µM; with MOLT-4 leukemia, 1.86 µM. Besides, the TGI in the assay with NCI-H226 lung turned out to be 2.28 µM; in the assay on SNB-19 CNS, 2.73 µM.
`CC(C)(C)c1cc(CCC(=O)Nc2ccc(Cl)cc2Cl)nc(N)n1`: the TGI with ACHN renal, in the assay with HCT-116 colon, in the assay with HCT-15 colon, in the assay with HT29 colon, in the assay on IGROV1 ovarian and with MOLT-4 leukemia was greater than 100 µM in each case. The TGI in the assay on NCI-H226 lung and in the assay on SNB-19 CNS was greater than 100 µM in each case.
For the molecule `C[N+](C)=c1nc(N2CCOCC2)ss1`, the TGI in the assay with ACHN renal, in the assay on HCT-116 colon, in the assay with HCT-15 colon, in the assay with HT29 colon, in the assay with IGROV1 ovarian and in the assay on MOLT-4 leukemia was greater than 100 µM in each case. In addition, the TGI in the assay on NCI-H226 lung and in the assay on SNB-19 CNS was greater than 100 µM throughout.
Turning to `COc1ccc(CC2=NCCc3cc(OC)c(OC)cc32)cc1Br`, the TGI in the assay on ACHN renal was greater than 100 µM; in the assay on HT29 colon, greater than 100 µM; in the assay with MOLT-4 leukemia, 58.6 µM; in the assay with NCI-H226 lung, 50.9 µM; in the assay with SNB-19 CNS, greater than 100 µM.
With `NC(=O)C(=O)n1ncc(Cl)c(Cl)c1=O`, the TGI was 55.7 µM in the assay with ACHN renal; 55.3 µM with HCT-116 colon; greater than 76.4 µM in the assay on HCT-15 colon; 44.4 µM in the assay with HT29 colon; greater than 77.4 µM in the assay with IGROV1 ovarian; greater than 100 µM in the assay with MDA-MB-435. In addition, the TGI is 20.4 µM with MOLT-4 leukemia, greater than 100 µM in the assay with NCI-H226 lung and greater than 100 µM with SNB-19 CNS.
Take `CCOC1=C2NC(Cc3ccc(F)cc3)=NC2C(=O)c2ccccc21` (stereo not drawn): the TGI is greater than 100 µM in the assay on ACHN renal, 58.7 µM in the assay with HT29 colon, greater than 100 µM in the assay on IGROV1 ovarian and 46.7 µM with MOLT-4 leukemia.
